The values that follow are results of earlier work, collected in patent US6770617B2, “Softener composition” (Kao Corporation, priority 2001, dated 2004).

Each structure is given as a SMILES string.

The conditions of the data set: 1-octanol/water; actual value if there was one, otherwise Clog P calculated with CLOGP v4.01.

Take `CCCCCOCC(O)CO` (stereo not drawn) [(c-1), Pentyl glyceryl ether]: the “log P” value is 0.54. With `CCCOC(C)COC(C)CO` (stereo not drawn) [(c-2), Dipropylene glycol monopropyl ether], the “log P” value was 0.99. For the compound `OCCOCCOCCOc1ccccc1` [(c-3), Triethylene glycol monophenyl ether], the “log P” value is 1.32.
